Entries after “also recorded” stand apart in the source; their conditions may differ.
What was measured:
[1] = OxiSelect ORAC Activity Assay Kit: antioxidant activity against peroxy radicals (AAPH); assay type: biochemical; conditions: for antioxidant action against peroxy radicals (fluorescence intensity): every 5 minutes for 60 minutes; for Antioxidant Activity Against Peroxy Radicals (NetAUC): AUCsample minus AUCblank, 60 minutes
Procedure: In this Example, HRG was investigated for its antioxidant action against peroxy radicals. As a positive control, Trolox was used. Antioxidant activity against peroxy radicals was measured with OxiSelect™ ORAC Activity Assay Kit (Cell Biolabs, San Diego, Calif.) in accordance with the specifications. The fluorescent probe solution was added to a sample solution, the mixture was incubated at 37° C. for 30 minutes, and added with 2,2′-azobis-(2-methylpropionamidine) dihydrochloride (AAPH), followed by immediate measurement of fluorescence intensity (Ex/Em=485 nm/538 nm). In the presence of peroxy radicals, the fluorescence of the fluorescent probe is quenched, and the quenching is inhibited when antioxidant activity is present. A. For each of 0 μM to 6.25 μM Trolox sample solutions, their fluorescence intensities (Ex/Em=485 nm/538 nm) were measured every 5 minutes for 60 minutes in accordance with the above-mentioned measurement method. […] B. For each of 0 μM to 1 μM HRG sample solutions, their fluorescence intensity (Ex/Em=485 nm/538 nm) were measured every 5 minutes for 60 minutes in accordance with the above-mentioned measurement method. […] The difference between the area under the curve of the fluorescence intensity of Trolox or HRG (AUCsample) and the area under the curve of the blank (AUCblank) was measured every 5 minutes for 60 minutes after the initiation of reaction to calculate NetAUC. […] In this Example, the histidine-rich peptide was investigated for its antioxidant action against peroxy radicals in the same manner as in Example 4. A. The fluorescent probe solution was added to each solution of HRG (1 μM), the histidine-rich peptide (6 μM), or the control peptide (6 μM), and antioxidant activity against peroxy radicals was measured by the same technique as that of Example 4. […] B. The fluorescent probe solution was added to histidine-rich peptide solutions (0.1 μM to 10 μM), and antioxidant activity against peroxy radicals was measured by the same technique as that of Example 4. […] The difference between the area under the curve of the fluorescence intensity of the histidine-rich peptide or HRG (AUCsample) and the area under the curve of the blank (AUCblank) was measured every 5 minutes for 60 minutes after the initiation of reaction to calculate NetAUC.

[2] = OxiSelect HORAC Activity Assay Kit: antioxidant activity against hydroxy radicals (cell-free, Fenton's reagent); assay type: biochemical; conditions: for antioxidant action against hydroxy radicals (fluorescence intensity): every 5 minutes for 60 minutes; for Antioxidant Activity Against Hydroxy Radicals (NetAUC): AUCsample minus AUCblank, 60 minutes
Procedure: Antioxidant activity against hydroxy radicals was measured with OxiSelect™ HORAC Activity Assay Kit (Cell Biolabs, San Diego, Calif.) in accordance with the specifications. A fluorescent probe solution was added to a sample solution, the mixture was incubated at 37° C. for 30 minutes, and a hydroxy radical initiator (H2O2) and Fenton's reagent were added, followed by the measurement of a fluorescence intensity (Ex/Em=485 nm/538 nm) based on the oxidation of the fluorescent probe by hydroxy radicals via hydrogen atom transfer (HAT). In the presence of hydroxy radicals, the fluorescence of the fluorescent probe is quenched, and the quenching is inhibited when antioxidant activity is present. As the sample solution, 0.01 μM to 1 μM HRG solutions, or 50 μM to 100 μM GA solutions were used. A. For each of the 50 μM to 100 μM gallic acid (GA) sample solutions, their fluorescence intensities (Ex/Em=485 nm/538 nm) were measured every 5 minutes for 60 minutes in accordance with the above-mentioned measurement method. The fluorescence intensities of GA and a blank were plotted on the vertical axis, and the measurement times were plotted on the horizontal axis. […] B. For each of the 0 μM to 1 μM HRG sample solutions, their fluorescence intensities (Ex/Em=485 nm/538 nm) were measured every 5 minutes for 60 minutes in accordance with the above-mentioned measurement method. The fluorescence intensities of HRG and a blank were plotted on the vertical axis, and the measurement times were plotted on the horizontal axis. […] The difference between the area under the curve of the fluorescence intensity of GA or HRG (AUCsample) and the area under the curve of the blank (AUCblank) was measured every 5 minutes for 60 minutes after the initiation of reaction, and NetAUC was calculated. […] In this Example, the histidine-rich peptide (SEQ ID NO: 10) was investigated for its antioxidant action against hydroxy radicals by the same technique as that of Example 1. A control peptide (SEQ ID NO: 11) was similarly investigated. A. The fluorescent probe solution was added to each solution of HRG (1 μM), the histidine-rich peptide (6 μM), or the control peptide (6 μM), and antioxidant activity against hydroxy radicals was measured by the same technique as that of Example 1. […] B. The fluorescent probe solution was added to histidine-rich peptide solutions (0.1 μM to 10 μM), and the resultant mixtures were measured for their antioxidant activity against hydroxy radicals by the same technique as that of Example 1. […] The difference between the area under the curve of the fluorescence intensity of the histidine-rich peptide or HRG (AUCsample) and the area under the curve of the blank (AUCblank) was measured every 5 minutes for 60 minutes after the initiation of reaction to calculate NetAUC.

[3] = Calorimetry (MicroCal iTC200) metal ion-binding property, trivalent iron ions; conditions: FIG. 4A, 5A, 6A
Procedure: (§1) In this Example, in order to investigate the binding properties of HRG to metal ions serving as essential factors in Fenton' s reaction, an experiment was performed using calorimetry. MicroCal iTC200 was used as a calorimeter, and binding properties between various metals (iron, copper, cobalt, zinc, and nickel) and samples were measured in accordance with the specifications.

[4] = Calorimetry (MicroCal iTC200) metal ion-binding property, divalent metal ions; conditions: for binding to divalent metal ions: iron, copper, cobalt, zinc, nickel, FIG. 4A-6B
Procedure: as §1

[5] = OxiSelect Catalase Activity Assay Kit: catalase-like activity; assay type: biochemical; conditions: 0.01 μM to 1 μM; FIG. 10A-B
Procedure: In this Reference Example, whether HRG had catalase-like activity was investigated through use of OxiSelect™ Catalase Activity Assay Kit (Cell Biolabs, San Diego, Calif.). HRG used was plasma-derived HRG generated by the method described in Example 1. A prescribed amount of hydrogen peroxide was allowed to react with 0.01 μM to 1 μM HRG. Next, the remaining hydrogen peroxide was incubated in the presence of HRP with a probe (colorimetric measurement: DHBS+AAP; and fluorescence measurement: ADHP (10-Acetyl-3,7-dihydroxyphenoxazine)) at 37° C. for 30 minutes, and the resulting fluorescence intensity (Ex/Em=544 nm/590 nm) was measured. As a control, measurement was similarly performed for catalase.

[6] = DetectX Superoxide Dismutase (SOD) Colorimetric Activity Kit: antioxidant action against superoxide (xanthine/xanthine oxidase); assay type: biochemical; conditions: 0.01 μM to 1 μM; room temperature 20 minutes; absorbance 450 nm; FIG. 9A-B
Description: In this Reference Example, the antioxidant action of HRG against superoxide was investigated through use of DetectX Superoxide Dismutase (SOD) Colorimetric Activity Kit (Arbor Assays, Ann Arbor, Mich.). HRG used was plasma-derived HRG generated by the method described in Example 1. Superoxide anion (O^2−) is generated by a xanthine/xanthine oxidase (XOD) system, and is detected through use of a chromogen solution. Superoxide dismutase (SOD) is a metalloenzyme that catalyzes the conversion of O^2− into an oxygen molecule and hydrogen peroxide. The presence of SOD decreases the O^2− concentration to decrease a dye signal.
In accordance with the specifications, xanthine oxidase, and a substrate were added to 0.01 μM to 1 μM HRG solutions, and the mixtures were incubated at room temperature for 20 minutes. After that, the reaction solutions were each measured for its absorbance at a wavelength of 450 nm. As a control, measurement was similarly performed for SOD.

[7] = overall conclusion from the results

Molecule | antioxidant activity against hydroxy radicals ([2]; 6 μM, FIG. 3A) | binding to trivalent iron ions [3] | antioxidant activity against peroxy radicals ([1]; 6 μM, FIG. 8A) | binding to divalent metal ions [4] | Antioxidant Activity Against Hydroxy Radicals (NetAUC) ([2]; FIG. 3C) | antioxidant activity against hydroxy radicals [2, 7] | Antioxidant Activity Against Peroxy Radicals (NetAUC) ([1]; FIG. 8C) | further results
Cc1c(C)c2c(c(C)c1O)CCC(C)(C(=O)O)O2 (stereo not drawn) [Trolox, reference compound] | – | – | – | – | – | – | – | antioxidant action against peroxy radicals (fluorescence intensity) ([1]; 0 μM to 6.25 μM sample solutions, FIG. 7A): antioxidant action against peroxy radicals was recognized in a manner dependent on the concentration of Trolox
O=C(O)c1cc(O)c(O)c(O)c1 [GA, gallic acid, reference compound] | – | – | – | – | – | – | – | antioxidant action against hydroxy radicals (fluorescence intensity) ([2]; 50 μM to 100 μM sample solutions, FIG. 2A): antioxidant action against hydroxy radicals was recognized in a manner dependent on the concentration of GA
GAAPAGAAPA (Standard peptide) [control peptide, reference compound] | no antioxidant action | did not bind to any of the various metal ions | no antioxidant action | did not bind to any of the various metal ions | – | – | – | –
GHHPHGHHPH [histidine-rich peptide] | potent antioxidant actions | does not bind to trivalent iron ions | an antioxidant action, which was slightly weaker | bind to divalent metal ions (iron, copper, cobalt, zinc, and nickel) | potent antioxidant action against hydroxy radicals | potent antioxidant activity against hydroxy radicals | weak as compared to HRG | antioxidant activity against hydroxy radicals ([2]; 0.1 μM to 10 μM, FIG. 3B): potent antioxidant activity in a concentration-dependent manner; antioxidant activity against peroxy radicals ([1]; 0.1 μM to 10 μM, FIG. 8B): antioxidant activity in a slightly concentration-dependent manner
HRG: Histidine-rich glycoprotein, plasma protein of 507 amino acids (SEQ ID NO: 1), generated from human plasma as a starting material (protein, listed as Homo sapiens) VSPTDCSAVEPEAEKALDLINKRRRDGYLFQLLRIADAHLDRVENTTVYYLVLDVQESDCSVLSRKYWNDCEPPDSRRPSEIVIGQCKVIATRHSHESQDLRVIDFNCTTSSVSSALANTKDSPVLIDFFEDTERYRKQANKALEKYKEENDDFASFRVDRIERVARVRGGEGTGYFVDFSVRNCPRHHFPRHPNVFGFCRADLFYDVEALDLESPKNLVINCEVFDPQEHENINGVPPHLGHPFHWGGHERSSTTKPPFKPHGSRDHHHPHKPHEHGPPPPPDERDHSHGPPLPQGPPPLLPMSCSSCQHATFGTNGAQRHSHNNNSSDLHPHKHHSHEQHPHGHHPHAHHPHEHDTHRQHPHGHHPHGHHPHGHHPHGHHPHGHHPHCHDFQDYGPCDPPPHNQGHCCHGHGPPPGHLRRRGPGKGPRPFHCRQIGSVYRLPPLRKGEVLPLPEANFPSFPLPHHKHPLKPDNQPFPQSVSESCPGKFKSGFPQVSMFFTHTFPK | – | did not bind to trivalent iron ions | – | bound to divalent metal ions (iron, copper, cobalt, zinc, and nickel) | potent antioxidant action against hydroxy radicals | potent antioxidant activity against hydroxy radicals | had an antioxidant action against peroxy radicals | antioxidant action against hydroxy radicals (fluorescence intensity) ([2]; 0 μM to 1 μM sample solutions, FIG. 2B): antioxidant action against hydroxy radicals was recognized in a manner dependent on the concentration of HRG; antioxidant activity against hydroxy radicals ([2]; 1 μM, FIG. 3A): potent antioxidant actions; Antioxidant Activity Against Hydroxy Radicals (NetAUC) ([2]; various concentrations, FIG. 2C): potent antioxidant action against hydroxy radicals; antioxidant action against peroxy radicals (fluorescence intensity) ([1]; 0 μM to 1 μM sample solutions, FIG. 7B): antioxidant action against peroxy radicals was recognized in a manner dependent on the concentration of HRG; antioxidant activity against peroxy radicals ([1]; 1 μM, FIG. 8A): potent antioxidant action; Antioxidant Activity Against Peroxy Radicals (NetAUC) ([1]; various concentrations, FIG. 7C): has an antioxidant action against peroxy radicals; antioxidant activity against peroxy radicals [1, 7]: showed an antioxidant activity against peroxy radicals; catalase-like activity [5]: no catalase-like activity; scavenging activity / antioxidant action against superoxide [6]: no scavenging activity against superoxide; also recorded: hardly showed an antioxidant action against superoxide; also recorded: no antioxidant action against superoxide; number of divalent metal ions bound per molecule ([4]; FIG. 4A): a large number of divalent metal ions bind to one molecule of HRG

— patent US20210198317A1, “REACTIVE OXYGEN PRODUCTION INHIBITOR AND/OR SCAVENGING PROMOTER” (NATIONAL UNIVERSITY CORPORATION OKAYAMA UNIVERSITY, priority 2018, published 2021)
